From the supplement of paper PMC11208160 come the findings set out here.
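Note: IS621 recombinase and bridge RNA in Escherichia coli cells.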

The data set can be described thus: recombinant barcode read abundance after kanamycin selection (control-corrected) (log10(CPM+1)); higher = more efficient recombination; sequences stand for … in AGTGCAGAGAAAATCGGCCAGTTTTCTCTGCCTGCAGTCCGCATGCCGT…AGATTTATGCAGCGGACTGCCTTTCTCCCAAAGTGATAAACCGGACAGTATCATGGACCGGTTTTCCCGGTAATCCGTATTTGCAAGGTTGGTTTCACT; site = the 11-nt target. In short, it runs like this: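 In a pooled screen in E. coli, targets were paired with target-binding loops of the IS621 bridge RNA. Each oligo carried a promoter, a target, a barcode and the first 104 bridge RNA bases driven by J23119, and was Gibson-cloned into a vector holding the remaining 73 bp and a T7-inducible recombinase before co-electroporation with a donor plasmid. Duplicate platings went onto chloramphenicol/ampicillin LB agar as the control or onto chloramphenicol/ampicillin/kanamycin with 0.1 mM IPTG. Recombination efficiency is the averaged, control-corrected count per million of barcodes at recombinant junctions, given as log10(CPM+1).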
Turning to “ATAAGCTCTTGGGTTCTAACCTGTTGCCG (site GAGCAACCTAA)”, the “recombinant barcode read abundance (log10)” value came to 0.0688. For the sequence “ATAAGTCCTTGGGTTCTAACCTGTTGCGA (site ACAAGTCCTCC)”, the “recombinant barcode read abundance (log10)” value amounted to 0.869.

As for “ATAAGTCCTTGGGTTCTAACCTGTTGCGA (site ATAAGTCCTTC)”, the “recombinant barcode read abundance (log10)” value was determined as 2.14. Take “ATAATACCTTGGGTTCTAACCTGTTGCCT (site ACAATACCTAG)”: the “recombinant barcode read abundance (log10)” value was found to be 0.135.

On to “ATAATACCTTGGGTTCTAACCTGTTGCCT (site ATAATACCTAG)”, for which the “recombinant barcode read abundance (log10)” value was 1.4. On to “ATAATAGCTTGGGTTCTAACCTGTTGCCT (site ATAAAAGCTAG)”, for which the “recombinant barcode read abundance (log10)” value was determined as 0.0804. Take “ATAATAGCTTGGGTTCTAACCTGTTGCCT (site ATAACAGCTAG)”: the “recombinant barcode read abundance (log10)” value worked out at 0.0342. On to “ATAATAGCTTGGGTTCTAACCTGTTGCCT (site ATAAGAGCTAG)”, for which the “recombinant barcode read abundance (log10)” value was determined as 0.0465. Regarding “ATAATAGCTTGGGTTCTAACCTGTTGCCT (site ATAATAGCTAG)”, the “recombinant barcode read abundance (log10)” value amounted to 1.63. On to “ATACCACCTTGGGTTCTAACCTGTTGCCT (site AAACCACCTAG)”, for which the “recombinant barcode read abundance (log10)” value was 0.278. For the sequence “ATACCACCTTGGGTTCTAACCTGTTGCCT (site ACACCACCTAG)”, the “recombinant barcode read abundance (log10)” value came to 1.24.

“ATACCACCTTGGGTTCTAACCTGTTGCCT (site AGACCACCTAG)”: the “recombinant barcode read abundance (log10)” value amounted to 0.431. Consider “ATACCACCTTGGGTTCTAACCTGTTGCCT (site ATACCACCTAG)”, for which the “recombinant barcode read abundance (log10)” value worked out at 1.77. The value for “ATACCTCCTTGGGTTCTAACCTGTTGCCT (site ATACCTCCTAG)” was 1.69. The figure for “ATACCTCCTTGGGTTCTAACCTGTTGCCT (site CTAACTCCTAG)” is 0.148. Consider “ATACGTCCTTGGGTTCTAACCTGTTGCAT (site AGACGTCCTAC)”, for which the “recombinant barcode read abundance (log10)” value amounted to 0.224. “ATACGTCCTTGGGTTCTAACCTGTTGCAT (site ATACGTCCTAT)”: the “recombinant barcode read abundance (log10)” value is 1.12.

On to “ATAGCCACTTGGGTTCTAACCTGTTGCCT (site ATAGCAACTAG)”, for which the “recombinant barcode read abundance (log10)” value stood at 0.141. Turning to “ATAGCCACTTGGGTTCTAACCTGTTGCCT (site ATAGCCACTAG)”, the “recombinant barcode read abundance (log10)” value was found to be 1.02. As for “ATAGCCACTTGGGTTCTAACCTGTTGCCT (site ATAGCGACTAG)”, the “recombinant barcode read abundance (log10)” value is 0.0246. “ATAGCCACTTGGGTTCTAACCTGTTGCCT (site ATAGCTACTAG)”: the “recombinant barcode read abundance (log10)” value amounted to 0.0679.

With “ATAGCGACTTGGGTTCTAACCTGTTGCCT (site ATAGCAACTAG)”, the “recombinant barcode read abundance (log10)” value is 1.18.

Consider “ATAGCGACTTGGGTTCTAACCTGTTGCCT (site ATAGCCACTAG)”, for which the “recombinant barcode read abundance (log10)” value worked out at 0.13. Turning to “ATAGCGACTTGGGTTCTAACCTGTTGCCT (site ATAGCGACTAG)”, the “recombinant barcode read abundance (log10)” value was 1.54. As for “ATAGCGACTTGGGTTCTAACCTGTTGCCT (site ATAGCTACTAG)”, the “recombinant barcode read abundance (log10)” value is 0. On to “ATAGGAACTTGGGTTCTAACCTGTTGCCT (site ATAGGAACTAG)”, for which the “recombinant barcode read abundance (log10)” value was 1.4. Regarding “ATAGGAACTTGGGTTCTAACCTGTTGCCT (site ATGGGCACTAG)”, the “recombinant barcode read abundance (log10)” value is 0.0276. For the sequence “ATAGGACCTTGGGTTCTAACCTGTTGCAG (site ATAGGACCTCT)”, the “recombinant barcode read abundance (log10)” value came out at 2.75. On to “ATAGGACCTTGGGTTCTAACCTGTTGCAG (site ATATGTCCTCT)”, for which the “recombinant barcode read abundance (log10)” value was determined as 0.328.

On to “ATAGGACCTTGGGTTCTAACCTGTTGCCA (site ATAGGACCTCG)”, for which the “recombinant barcode read abundance (log10)” value was 0.653.

Turning to “ATAGGACCTTGGGTTCTAACCTGTTGCCA (site ATAGGACCTTG)”, the “recombinant barcode read abundance (log10)” value was 1.57. As to “ATAGGGACTTGGGTTCTAACCTGTTGCCT (site ATAGGGACTAG)”, the “recombinant barcode read abundance (log10)” value amounted to 2.31.

Take “ATAGGGACTTGGGTTCTAACCTGTTGCCT (site GTAGCGACTAG)”: the “recombinant barcode read abundance (log10)” value stood at 0.177. As for “ATAGGGACTTGGGTTCTAACCTGTTGCTA (site ATAAGGACTTA)”, the “recombinant barcode read abundance (log10)” value was 1.97. Turning to “ATAGGGACTTGGGTTCTAACCTGTTGCTA (site ATACGGACTTA)”, the “recombinant barcode read abundance (log10)” value came to 0.291.

As to “ATAGGGACTTGGGTTCTAACCTGTTGCTA (site ATAGGGACTTA)”, the “recombinant barcode read abundance (log10)” value was determined as 2.91. As for “ATAGGGACTTGGGTTCTAACCTGTTGCTA (site ATATGGACTTA)”, the “recombinant barcode read abundance (log10)” value was found to be 0.759.

On to “ATAGTCCCTTGGGTTCTAACCTGTTGCCT (site ATAGTCCCTAG)”, for which the “recombinant barcode read abundance (log10)” value stood at 2.25. Consider “ATAGTCCCTTGGGTTCTAACCTGTTGCCT (site ATGGTCCCTAG)”, for which the “recombinant barcode read abundance (log10)” value is 0.644. For the sequence “ATAGTTACTTGGGTTCTAACCTGTTGCCT (site ATAGTTACTAG)”, the “recombinant barcode read abundance (log10)” value was determined as 1.73. Regarding “ATAGTTACTTGGGTTCTAACCTGTTGCCT (site ATGATTACTAG)”, the “recombinant barcode read abundance (log10)” value worked out at 0.129. As for “ATATACGCTTGGGTTCTAACCTGTTGCCT (site ATATACGCTAG)”, the “recombinant barcode read abundance (log10)” value stood at 1.84. With “ATATACGCTTGGGTTCTAACCTGTTGCCT (site CTATAGGCTAG)”, the “recombinant barcode read abundance (log10)” value turned out to be 0.0578. With “ATATCGTCTTGGGTTCTAACCTGTTGCCT (site ATATCGTCTAG)”, the “recombinant barcode read abundance (log10)” value came to 1.61. For the sequence “ATATCGTCTTGGGTTCTAACCTGTTGCCT (site CTATCGTCTAG)”, the “recombinant barcode read abundance (log10)” value was determined as 0.0269. The figure for “ATATGCGCTTGGGTTCTAACCTGTTGCCG (site ATATGAGCTCG)” is 0.108; for “ATATGCGCTTGGGTTCTAACCTGTTGCCG (site ATATGCGCTCG)” it is 1.43; for “ATATGCGCTTGGGTTCTAACCTGTTGCCG (site ATATGGGCTCG)” it is 0.0781. The value for “ATATGCGCTTGGGTTCTAACCTGTTGCCG (site ATATGTGCTCG)” was 0.262; that for “ATATGTACTTGGGTTCTAACCTGTTGCAG (site ATACGGACTCT)” was 0; that for “ATATGTACTTGGGTTCTAACCTGTTGCAG (site ATATGTACTCT)” was 2.1. The figure for “ATATGTGCTTGGGTTCTAACCTGTTGCCG (site ATATGAGCTCG)” is 0.0211; for “ATATGTGCTTGGGTTCTAACCTGTTGCCG (site ATATGCGCTCG)” it is 0.0242; for “ATATGTGCTTGGGTTCTAACCTGTTGCCG (site ATATGGGCTCG)” it is 0.108. As for “ATATGTGCTTGGGTTCTAACCTGTTGCCG (site ATATGTGCTCG)”, the “recombinant barcode read abundance (log10)” value came to 1.71.

For “ATCAAGACTTGGGTTCTAACCTGTTGCCT (site ATAAAGACTAG)”, the “recombinant barcode read abundance (log10)” value came out at 0.266. For “ATCAAGACTTGGGTTCTAACCTGTTGCCT (site ATCAAGACTAG)”, the “recombinant barcode read abundance (log10)” value was determined as 1.42. Regarding “ATCAAGACTTGGGTTCTAACCTGTTGCCT (site ATGAAGACTAG)”, the “recombinant barcode read abundance (log10)” value was found to be 0.252. As to “ATCAAGACTTGGGTTCTAACCTGTTGCCT (site ATTAAGACTAG)”, the “recombinant barcode read abundance (log10)” value stood at 0.272. The figure for “ATCACACCTTGGGTTCTAACCTGTTGCCT (site ATCACACCTAG)” is 0.761; for “ATCACACCTTGGGTTCTAACCTGTTGCCT (site CTCACACCTAG)” it is 0.102. The figure for “ATCACGTCTTGGGTTCTAACCTGTTGCCT (site ATCACGTCTAG)” is 1.4; for “ATCACGTCTTGGGTTCTAACCTGTTGCCT (site CAGCATCCTCT)” it is 0.0385. Consider “ATCAGTTCTTGGGTTCTAACCTGTTGCTG (site ATCAGTTCTCA)”, for which the “recombinant barcode read abundance (log10)” value was 0.074. In the case of “ATCAGTTCTTGGGTTCTAACCTGTTGCTG (site GATTTCGCTAG)”, the “recombinant barcode read abundance (log10)” value worked out at 0.155. With “ATCCAACCTTGGGTTCTAACCTGTTGCCT (site ATCCAACCTAG)”, the “recombinant barcode read abundance (log10)” value came to 1.89. As to “ATCCAACCTTGGGTTCTAACCTGTTGCCT (site ATCCACCCTAG)”, the “recombinant barcode read abundance (log10)” value was 0.123.

Consider “ATCCAACCTTGGGTTCTAACCTGTTGCCT (site ATCCAGCCTAG)”, for which the “recombinant barcode read abundance (log10)” value was 0.348. As for “ATCCAACCTTGGGTTCTAACCTGTTGCCT (site ATCCATCCTAG)”, the “recombinant barcode read abundance (log10)” value came to 0.0128. Take “ATCCACCCTTGGGTTCTAACCTGTTGCCT (site ATCCAACCTAG)”: the “recombinant barcode read abundance (log10)” value was 0.15.

On to “ATCCACCCTTGGGTTCTAACCTGTTGCCT (site ATCCACCCTAG)”, for which the “recombinant barcode read abundance (log10)” value came out at 2.07. Take “ATCCACCCTTGGGTTCTAACCTGTTGCCT (site ATCCAGCCTAG)”: the “recombinant barcode read abundance (log10)” value was 0.207.

As for “ATCCACCCTTGGGTTCTAACCTGTTGCCT (site ATCCATCCTAG)”, the “recombinant barcode read abundance (log10)” value was 0.0749. On to “ATCCACCCTTGGGTTCTAACCTGTTGCGG (site ATCCACCCTCC)”, for which the “recombinant barcode read abundance (log10)” value amounted to 3.07. For “ATCCACCCTTGGGTTCTAACCTGTTGCGG (site GACCACCCTCC)”, the “recombinant barcode read abundance (log10)” value is 0.218. On to “ATCCATCCTTGGGTTCTAACCTGTTGCCT (site ATCCAACCTAG)”, for which the “recombinant barcode read abundance (log10)” value came to 0.00851.

Turning to “ATCCATCCTTGGGTTCTAACCTGTTGCCT (site ATCCACCCTAG)”, the “recombinant barcode read abundance (log10)” value was found to be 0.0821.
